In patent publication US7981903B2, “2-[2-{phenylamino}-1H-pyrrolo[2,3-D]pyrimidin-4-yl)amino] benzamide derivatives as IGF-1R inhibitors for the treatment of cancer” (GlaxoSmithKline LLC, priority 2007, dated 2011):

Assays:
human IGF1R (hIGF1R) = molecular target: T1, human IGF1R (hIGF1R) (Homo sapiens, UniProt P08069); experiment: TR-FRET kinase assay of purified hIGF1R; assay type: biochemical; settings: activated hIGF1R 0.5 nM, 10 μM ATP, values given as pIC50 category, read-out: IGF-1R pIC50 (converted)
T1 construct: containing amino acid residues 957-1367 of human IGF1R; made in house; host or cells: Sf9 cells (baculovirus)

[1] = molecular target: T2, NIH-3T3 cells overexpressing human IGF-1R (Homo sapiens, UniProt P08069); experiment: IGF-1R cellular autophosphorylation (DELFIA); assay type: cell-based
T2 construct: expressed in transfected cells; host or cells: NIH-3T3 (mouse fibroblasts)
Procedure, shortened: (§1)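 Receptor autophosphorylation measured by DELFIA, capturing IGF-1R or IRβ and detecting with europium anti-pTyr, reported as percent of IGF-1- or insulin-stimulated signal. Compounds (30 uM to 1.5 nM) added 2 h before ligand, then 15 min stimulation (IGF-1 30 ng/ml or insulin 3 ug/ml).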

Colo205 = experiment: Inhibition of cell proliferation (CellTiter-Glo or InCell analyzer), Colo205; assay type: cell-based; settings: Homo sapiens, COLO 205, 72 h / 3 days, values given as IC50 category
Procedure, shortened: In one

[2] = molecular target: T3, NIH-3T3 cells overexpressing human IR (Homo sapiens, UniProt P06213); experiment: IR cellular autophosphorylation (DELFIA); assay type: cell-based; settings: 2 h compound, insulin 3 ug/ml for 15 minutes, IC50 category
T3 construct: expressed in transfected cells; host or cells: NIH-3T3 (mouse fibroblasts)
Procedure, shortened: as §1

T3 sequence (P06213 28-1382): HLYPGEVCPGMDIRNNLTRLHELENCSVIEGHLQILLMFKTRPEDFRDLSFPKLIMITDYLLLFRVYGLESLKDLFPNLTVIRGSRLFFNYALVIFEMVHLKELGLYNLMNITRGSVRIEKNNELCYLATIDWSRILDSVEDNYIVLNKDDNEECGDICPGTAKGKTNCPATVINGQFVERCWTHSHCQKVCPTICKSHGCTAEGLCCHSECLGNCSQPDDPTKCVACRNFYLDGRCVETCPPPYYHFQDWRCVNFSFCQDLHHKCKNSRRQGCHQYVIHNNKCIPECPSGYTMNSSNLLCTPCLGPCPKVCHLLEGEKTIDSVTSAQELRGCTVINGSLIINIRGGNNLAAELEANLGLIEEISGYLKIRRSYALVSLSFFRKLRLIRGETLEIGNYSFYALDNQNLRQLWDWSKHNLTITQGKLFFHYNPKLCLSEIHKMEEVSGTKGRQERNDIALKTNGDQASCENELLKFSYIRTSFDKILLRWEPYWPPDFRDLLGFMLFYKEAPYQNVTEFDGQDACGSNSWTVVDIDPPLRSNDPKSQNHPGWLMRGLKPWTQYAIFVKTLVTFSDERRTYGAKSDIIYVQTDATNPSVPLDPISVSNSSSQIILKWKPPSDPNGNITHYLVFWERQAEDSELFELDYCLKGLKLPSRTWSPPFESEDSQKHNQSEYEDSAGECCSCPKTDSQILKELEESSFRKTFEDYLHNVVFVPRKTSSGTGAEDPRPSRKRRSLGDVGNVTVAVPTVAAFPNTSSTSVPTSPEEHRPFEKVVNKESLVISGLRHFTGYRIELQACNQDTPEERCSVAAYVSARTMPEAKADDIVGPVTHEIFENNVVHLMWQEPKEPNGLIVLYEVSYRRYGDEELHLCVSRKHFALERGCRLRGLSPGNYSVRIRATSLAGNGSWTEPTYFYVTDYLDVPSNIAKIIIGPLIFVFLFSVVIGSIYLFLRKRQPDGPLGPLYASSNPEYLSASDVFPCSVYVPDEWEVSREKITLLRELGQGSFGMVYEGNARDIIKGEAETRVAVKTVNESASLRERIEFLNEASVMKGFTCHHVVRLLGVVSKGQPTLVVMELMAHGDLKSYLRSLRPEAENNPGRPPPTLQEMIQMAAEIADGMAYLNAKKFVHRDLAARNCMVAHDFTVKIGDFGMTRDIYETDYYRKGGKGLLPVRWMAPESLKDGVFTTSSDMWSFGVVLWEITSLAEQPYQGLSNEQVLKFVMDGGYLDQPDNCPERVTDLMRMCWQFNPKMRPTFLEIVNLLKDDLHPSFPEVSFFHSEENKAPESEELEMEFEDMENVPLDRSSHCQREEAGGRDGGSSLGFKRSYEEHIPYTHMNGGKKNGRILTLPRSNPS
T2 sequence (P08069 31-1367): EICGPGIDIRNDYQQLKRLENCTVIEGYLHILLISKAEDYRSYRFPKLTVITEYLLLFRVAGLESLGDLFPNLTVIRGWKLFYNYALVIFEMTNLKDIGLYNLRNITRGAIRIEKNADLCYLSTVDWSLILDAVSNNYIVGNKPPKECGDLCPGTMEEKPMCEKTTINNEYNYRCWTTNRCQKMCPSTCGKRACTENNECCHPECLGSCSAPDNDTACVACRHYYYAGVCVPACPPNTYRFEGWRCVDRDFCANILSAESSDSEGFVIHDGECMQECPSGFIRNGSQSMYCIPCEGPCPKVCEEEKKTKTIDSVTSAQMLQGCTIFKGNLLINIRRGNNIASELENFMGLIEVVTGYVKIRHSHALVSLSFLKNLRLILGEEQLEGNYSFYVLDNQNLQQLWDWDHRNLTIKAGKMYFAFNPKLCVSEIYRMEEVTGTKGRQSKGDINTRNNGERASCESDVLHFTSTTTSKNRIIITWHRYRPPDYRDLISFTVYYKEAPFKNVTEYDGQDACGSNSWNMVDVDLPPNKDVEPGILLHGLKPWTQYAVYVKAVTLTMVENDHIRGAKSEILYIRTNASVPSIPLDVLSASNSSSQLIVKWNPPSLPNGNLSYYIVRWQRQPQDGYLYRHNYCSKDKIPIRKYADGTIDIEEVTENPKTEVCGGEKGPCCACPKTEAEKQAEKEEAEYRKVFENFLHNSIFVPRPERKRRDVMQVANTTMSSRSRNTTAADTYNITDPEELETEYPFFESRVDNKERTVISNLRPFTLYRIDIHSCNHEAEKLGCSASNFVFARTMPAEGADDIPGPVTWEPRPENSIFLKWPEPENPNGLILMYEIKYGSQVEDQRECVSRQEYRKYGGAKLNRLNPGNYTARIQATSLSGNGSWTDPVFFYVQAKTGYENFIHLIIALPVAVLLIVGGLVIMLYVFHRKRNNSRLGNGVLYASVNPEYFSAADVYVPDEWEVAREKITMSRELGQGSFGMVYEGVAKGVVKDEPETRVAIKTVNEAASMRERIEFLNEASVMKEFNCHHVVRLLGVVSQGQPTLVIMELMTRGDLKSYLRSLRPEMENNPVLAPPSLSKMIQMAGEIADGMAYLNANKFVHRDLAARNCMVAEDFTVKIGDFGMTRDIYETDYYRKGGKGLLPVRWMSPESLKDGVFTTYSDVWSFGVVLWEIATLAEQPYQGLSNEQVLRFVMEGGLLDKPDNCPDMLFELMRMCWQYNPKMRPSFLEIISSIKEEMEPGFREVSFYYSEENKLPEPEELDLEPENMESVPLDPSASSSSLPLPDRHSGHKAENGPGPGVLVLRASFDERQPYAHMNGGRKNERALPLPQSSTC
T1 sequence (P08069 957-1367): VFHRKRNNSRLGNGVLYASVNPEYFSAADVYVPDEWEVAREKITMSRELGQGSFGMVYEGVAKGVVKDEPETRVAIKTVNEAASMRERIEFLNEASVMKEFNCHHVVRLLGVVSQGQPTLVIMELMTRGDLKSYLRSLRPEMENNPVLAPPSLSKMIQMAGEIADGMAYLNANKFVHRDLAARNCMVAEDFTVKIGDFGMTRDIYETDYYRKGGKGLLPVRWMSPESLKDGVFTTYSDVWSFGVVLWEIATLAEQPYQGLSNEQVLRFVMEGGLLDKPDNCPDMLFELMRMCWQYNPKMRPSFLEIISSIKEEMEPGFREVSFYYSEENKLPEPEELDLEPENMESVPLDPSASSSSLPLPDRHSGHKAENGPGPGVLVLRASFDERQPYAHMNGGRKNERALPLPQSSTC

Structure (SMILES)	IC50 (human IGF1R (hIGF1R))	IC50 [1]	IC50 (Colo205)	IC50 [2]
CCCN1CCC=C(c2ccc(Nc3nc(Nc4cc(F)ccc4C(=O)N[C@@H](C)CC)c4cc[nH]c4n3)c(OC)c2)C1 [Example 87, 4-fluoro-2-[(2-{[2-(methyloxy)-4-(1-propyl-1,2,5,6-tetrahydro-3-pyridinyl)phenyl]amino}-1H-pyrrolo[2,3-d]pyrimidin-4-yl)amino]-N-[(1S)-1-methylpropyl]benzamide]	1.26 to 3.98 nM	> 500 nM	250 to 1000 nM	> 500 nM
COc1cc(N2CCC(N3CCCC(F)(F)C3)CC2)ccc1Nc1nc(Nc2cc(F)ccc2C(N)=O)c2cc[nH]c2n1 [Example 77, 2-[(2-{[4-(3,3-difluoro-1,4′-bipiperidin-1′-yl)-2-(methyloxy)phenyl]amino}-1H-pyrrolo[2,3-d]pyrimidin-4-yl)amino]-4-fluorobenzamide]	1.26 to 3.98 nM	100 to 500 nM	250 to 1000 nM	< 100 nM
COc1ccc(N2CCN(C)CC2)cc1Nc1nc(Nc2ccccc2C(N)=O)c2cc[nH]c2n1 [Example 9, 2-[(2-{[2-(methyloxy)-5-(4-methyl-1-piperazinyl)phenyl]amino}-1H-pyrrolo[2,3-d]pyrimidin-4-yl)amino]benzamide]	1.26 to 3.98 nM	100 to 500 nM	< 250 nM	–
COc1cc(N2CCN(C(C)C)CC2)ccc1Nc1nc(Nc2ccc(Br)cc2C(N)=O)c2cc[nH]c2n1 [Example 68, 5-bromo-2-[(2-{[4-[4-(1-methylethyl)-1-piperazinyl]-2-(methyloxy)phenyl]amino}-1H-pyrrolo[2,3-d]pyrimidin-4-yl)amino]benzamide]	1.26 to 3.98 nM	100 to 500 nM	< 250 nM	–
COc1cc(N2CCC(N3CC[C@H](F)C3)CC2)ccc1Nc1nc(Nc2cccc(F)c2C(N)=O)c2cc[nH]c2n1 [Example 43, 2-fluoro-6-[(2-{[4-{4-[(3S)-3-fluoro-1-pyrrolidinyl]-1-piperidinyl}-2-(methyloxy)phenyl]amino}-1H-pyrrolo[2,3-d]pyrimidin-4-yl)amino]benzamide]	1.26 to 3.98 nM	100 to 500 nM	250 to 1000 nM	100 to 500 nM
COc1cc(N2CCOC[C@@H]2C)ccc1Nc1nc(Nc2cccc(F)c2C(N)=O)c2cc[nH]c2n1 [Example 49, 2-fluoro-6-[(2-{[4-[(3S)-3-methyl-4-morpholinyl]-2-(methyloxy)phenyl]amino}-1H-pyrrolo[2,3-d]pyrimidin-4-yl)amino]benzamide]	1.26 to 3.98 nM	100 to 500 nM	< 250 nM	100 to 500 nM
COc1ccc(N2CCN(C(C)C)CC2)cc1Nc1nc(Nc2ccccc2C(N)=O)c2cc[nH]c2n1 [Example 10, 2-[(2-{[5-[4-(1-methylethyl)-1-piperazinyl]-2-(methyloxy)phenyl]amino}-1H-pyrrolo[2,3-d]pyrimidin-4-yl)amino]benzamide]	1.26 to 3.98 nM	100 to 500 nM	< 250 nM	100 to 500 nM
COc1cc(N2CCN(C(C)C)CC2)ccc1Nc1nc(Nc2cc(F)cc(OC)c2C(N)=O)c2cc[nH]c2n1 [Example 88]	1.26 to 3.98 nM	> 500 nM	250 to 1000 nM	> 500 nM

Other lines, results leading:

IC50 (human IGF1R (hIGF1R))	IC50 [1]	IC50 (Colo205)	IC50 [2]	Structure (SMILES)
0.251 to 1 nM	< 100 nM	< 250 nM	< 100 nM	COc1cc(N2CCOC[C@@H]2C)ccc1Nc1nc(Nc2cc(F)c(F)cc2C(N)=O)c2cc[nH]c2n1 [Example 105, 4,5-difluoro-2-[(2-{[4-[(3S)-3-methyl-4-morpholinyl]-2-(methyloxy)phenyl]amino}-1H-pyrrolo[2,3-d]pyrimidin-4-yl)amino]benzamide]
0.251 to 1 nM	100 to 500 nM	< 250 nM	100 to 500 nM	COc1cc(N2CCC[C@H](O)C2)ccc1Nc1nc(Nc2cc(F)ccc2C(N)=O)c2cc[nH]c2n1 [Example 74, 4-fluoro-2-[(2-{[4-[(3S)-3-hydroxy-1-piperidinyl]-2-(methyloxy)phenyl]amino}-1H-pyrrolo[2,3-d]pyrimidin-4-yl)amino]benzamide]
1.26 to 3.98 nM	< 100 nM	< 250 nM	< 100 nM	COc1cc(N2CCOC[C@@H]2C)ccc1Nc1nc(Nc2ccc(F)cc2C(N)=O)c2cc[nH]c2n1 [Example 61, 5-fluoro-2-[(2-{[4-[(3S)-3-methyl-4-morpholinyl]-2-(methyloxy)phenyl]amino}-1H-pyrrolo[2,3-d]pyrimidin-4-yl)amino]benzamide]
0.251 to 1 nM	< 100 nM	250 to 1000 nM	–	COc1cc(N2CCC(O)CC2)ccc1Nc1nc(Nc2cc(F)c(F)cc2C(N)=O)c2cc[nH]c2n1 [Example 99]
0.251 to 1 nM	< 100 nM	250 to 1000 nM	> 500 nM	COc1cc(N2CCC(N3CCOCC3)CC2)ccc1Nc1nc(Nc2cc(F)c(F)cc2C(N)=O)c2cc[nH]c2n1 [Example 101, 4,5-difluoro-2-{[2-({2-(methyloxy)-4-[4-(4-morpholinyl)-1-piperidinyl]phenyl}amino)-1H-pyrrolo[2,3-d]pyrimidin-4-yl]amino}benzamide]
0.251 to 1 nM	< 100 nM	< 250 nM	100 to 500 nM	COc1cc(N2CCN(C(C)=O)CC2)ccc1Nc1nc(Nc2cc(F)c(F)cc2C(N)=O)c2cc[nH]c2n1 [Example 103, 2-[(2-{[4-(4-acetyl-1-piperazinyl)-2-(methyloxy)phenyl]amino}-1H-pyrrolo[2,3-d]pyrimidin-4-yl)amino]-4,5-difluorobenzamide]
0.251 to 1 nM	< 100 nM	> 1000 nM	–	COc1cc(N2CCOCC2)ccc1Nc1nc(Nc2cc(F)c(F)cc2C(N)=O)c2cc[nH]c2n1 [Example 104, 4,5-difluoro-2-[(2-{[2-(methyloxy)-4-(4-morpholinyl)phenyl]amino}-1H-pyrrolo[2,3-d]pyrimidin-4-yl)amino]benzamide]
0.251 to 1 nM	< 100 nM	< 250 nM	–	CN(C)CC(=O)Nc1ccc(Cl)c(Nc2nc(Nc3ccccc3C(N)=O)c3cc[nH]c3n2)c1 [Example 18, 2-{[2-({2-chloro-5-[(N,N-dimethylglycyl)amino]phenyl}amino)-1H-pyrrolo[2,3-d]pyrimidin-4-yl]amino}benzamide]
0.251 to 1 nM	< 100 nM	< 250 nM	–	COc1cc(N2CCC(N3CCCCC3)CC2)ccc1Nc1nc(Nc2cc(F)c(F)cc2C(N)=O)c2cc[nH]c2n1 [Example 100, 2-[(2-{[4-(1,4′-bipiperidin-1′-yl)-2-(methyloxy)phenyl]amino}-1H-pyrrolo[2,3-d]pyrimidin-4-yl)amino]-4,5-difluorobenzamide]
1.26 to 3.98 nM	< 100 nM	< 250 nM	100 to 500 nM	COc1cc(N2CCN(C(C)C)CC2)c(OC)cc1Nc1nc(Nc2cc(F)ccc2C(N)=O)c2cc[nH]c2n1 [Example 82, 4-fluoro-2-[(2-{[4-[4-(1-methylethyl)-1-piperazinyl]-2,5-bis(methyloxy)phenyl]amino}-1H-pyrrolo[2,3-d]pyrimidin-4-yl)amino]benzamide]
1.26 to 3.98 nM	< 100 nM	< 250 nM	–	COc1cc(N2CCC(N3CCOCC3)CC2)ccc1Nc1nc(Nc2ccc(F)cc2C(N)=O)c2cc[nH]c2n1 [Example 59, 5-fluoro-2-{[2-({2-(methyloxy)-4-[4-(4-morpholinyl)-1-piperidinyl]phenyl}amino)-1H-pyrrolo[2,3-d]pyrimidin-4-yl]amino}benzamide]
